Patent US9339503B2, “Tetrahydro-quinazolinone derivatives as TANK and PARP inhibitors” (MERCK PATENT GMBH, priority 2012, dated 2016)

Experiments:
[1] = molecular target: T1, GST-tagged Tankyrase-2 (873-1166 aa) (Homo sapiens, UniProt Q9H2K2); test: Tankyrase 2 autoparsylation assay (HTRF enzyme assay); format: biochemical
T1 construct: GST-tagged Tankyrase-2 (873-1166 aa)
Procedure: The autoparsylation assay was run in two steps: the enzymatic reaction in which GST-tagged Tankyrase-1, resp Tankyrase-2 transferred biotinylated ADP-ribose to itself from biotinylated NAD as co-substrate and the detection reaction where a time resolved FRET between cryptate labelled anti-GST bound to the GST tag of the enzyme and Xlent® labelled-streptavidin bound the biotin-parsylation residue was analysed. The autoparsylation activity was detectable directly via the increase in HTRF signal.
The autoparsylation assay was performed as 384-well HTRF® (Cisbio, Codolet, France) assay format in Greiner low volume nb 384-well microtiter plates and was used for high throughput screen. 250 nM GST-tagged Tankyrase-1 (1023-1327 aa), respectively about 250 nM GST-tagged Tankyrase-2 (873-1166 aa) and 5 μM bio-NAD (Biolog, Life science Inst., Bremen, Germany) as co-substrate were incubated in a total volume of 5 μl (50 mM HEPES, 4 mM Mg-chloride, 0.05% Pluronic F-68, 1.4 mM DTT, 0.5% DMSO, pH 7.7) in the absence or presence of the test compound (10 dilution concentrations) for 90 min at 30° C. The reaction was stopped by the addition of 1 μl 50 mM EDTA solution. 2 μl of the detection solution (1.6 μM SA-Xlent® (Cisbio, Codolet, France), 7.4 nM Anti-GST-K® (Eu-labelled anti-GST, Cisbio, Codolet, France) in 50 mM HEPES, 800 mM KF, 0.1% BSA, 20 mM EDTA, 0.1% CHAPS, pH 7.0) were added. After 1 h incubation at room temperature the HTRF was measured with an Envision multimode reader (Perkin Elmer LAS Germany GmbH) at excitation wavelength 340 nm (laser mode) and emission wavelengths 615 nm and 665 nm. The ratio of the emission signals was determined. The full value used was the inhibitor-free reaction. The pharmacological zero value used was XAV-939 (Tocris) in a final concentration of 5 μM. The inhibitory values (IC50) were determined using either the program Symyx Assay Explorer® or Condosseo® from GeneData.

[2] = molecular target: T2, GST-tagged Tnks-1 (1023-1327 aa) (Homo sapiens, UniProt O95271); test: TNKS 1 activity ELISA (autoparsylation assay); format: biochemical; details: read-out: IC50 tankyrase 1 (ELISA assay)
T2 construct: GST-tagged Tnks-1 (1023-1327 aa, prepared in-house); made in house
Procedure: (§1) Biochemical Activity Testing of TNKS 1 and 2: Activity ELISA (Autoparsylation Assay)
(§2) For analysis of autoparsylation activity of TNKS 1 and 2 an activity ELISA was performed: In the first step GST tagged TNKS was captured on a Glutathione coated plate. Then the activity assay with biotinylated NAD was performed in the absence/presence of the compounds. During the enzymatic reaction GST tagged TNKS transferred biotinylated ADP-ribose to itself from biotinylated NAD as co-substrate. For the detection streptavidin-HRP conjugate was added that bound to the biotinylated TNKS and was thereby captured to the plates. The amount of biotinylated resp autoparsylated TNKS was detected with a luminescence substrate for HRP. The level of the luminescence signal correlated directly with the amount of autoparsylated TNKS and therefore with activity of TNKS.
(§3) The activity ELISA was performed in 384 well Glutathione coated microtiter plates (Express capture Glutathione coated plate, Biocat, Heidelberg, Germany). The plates were pre-equilibrated with PBS. Then the plates were incubated with 50 μl 20 ng/well GST-tagged Tnks-1 (1023-1327 aa, prepared in-house), respectively GST-tagged Tnks-2 (873-1166 aa, prepared in-house) in assay buffer (50 mM HEPES, 4 mM Mg-chloride, 0.05% Pluronic F-68, 2 mM DTT, pH 7.7) overnight at 4° C. The plates were washed 3 times with PBS-Tween-20. The wells were blocked by incubation at room temperature for 20 minutes with 50 μl blocking buffer (PBS, 0.05% Tween-20, 0.5% BSA). Afterwards the plates were washed 3 times with PBS-Tween-20. The enzymatic reaction was performed in 50 μl reaction solution (50 mM HEPES, 4 mM Mg-chloride, 0.05% Pluronic F-68, 1.4 mM DTT, 0.5% DMSO, pH 7.7) with 10 μM bio-NAD (Biolog, Life science Inst., Bremen, Germany) as co-substrate in the absence or presence of the test compound (10 dilution concentrations) for 1 hour at 30° C. The reaction was stopped by 3 times washing with PBS-Tween-20. For the detection 50 μl of 20 ng/μl Streptavidin, HRP conjugate (MoBiTec, Göttingen, Germany) in PBS/0.05% Tween-20/0.01% BSA were added and the plates were incubated for 30 minutes at room temperature. After three times washing with PBS-Tween-20 50 μl of SuperSignal ELISA Femto Maximum sensitivity substrate solution (ThermoFisherScientific (Pierce), Bonn, Germany) were added. Following a 1 minute incubation at room temperature luminescence signals were measured with an Envision multimode reader (Perkin Elmer LAS Germany GmbH) at 700 nm. The full value used was the inhibitor-free reaction. The pharmacological zero value used was XAV-939 (Tocris) in a final concentration of 5 μM. The inhibitory values (IC50) were determined using either the program Symyx Assay Explorer® or Condosseo® from GeneData.

[3] = molecular target: T3, GST-tagged Tnks-2 (873-1166 aa) (Homo sapiens, UniProt Q9H2K2); test: TNKS 2 activity ELISA (autoparsylation assay); format: biochemical; details: read-out: IC50 tankyrase 2 (ELISA assay)
T3 construct: GST-tagged Tnks-2 (873-1166 aa, prepared in-house); made in house
Procedure: as §1, §2, §3

[4] = test system: tankyrase 1/2; test: Measurement of cellular inhibition of tankyrase (Axin2 level, Luminex based assay, DLD1 cells); details: 24 hours, increase of Axin2 level, read-out: EC50 tankyrase 1/2 (cell assay)
Procedure: Measurement of Cellular Inhibition of Tankyrase
Since Tankyrases have been described to modulate cellular level of Axin2 (Huang et al., 2009; Nature) the increase of Axin2 level is used as read-out for determination of cellular inhibition of Tankyrases in a Luminex based assay.
Cells of the colon carcinoma cell line DLD1 are plated in 96 well plates with 1.5×10^4 cells per well. Next day, cells are treated with a serial-dilution of test compound in seven steps as triplicates with a final DMSO concentration of 0.3%. After 24 hours, cells are lysed in lysis buffer (20 mM Tris/HCl pH 8.0, 150 mM NaCl, 1% NP40, 10% Glycerol) and lysates are cleared by centrifugation through a 96 well filter plate (0.65 μm). Axin2 protein is isolated from cell lysates by incubation with a monoclonal anti-Axin2 antibody (R&D Systems #MAB6078) that is bound to fluorescent carboxybeads. Then, bound Axin2 is specifically detected with a polyclonal anti-Axin2 antibody (Cell Signaling #2151) and an appropriate PE-fluorescent secondary antibody. The amount of isolated Axin2 protein is determined in a Luminex^200 machine (Luminex Corporation) according to the manufacturer's instruction by counting 100 events per well. […] For analysis, the obtained data were normalized against the untreated solvent control and fitted for determination of the EC50 values using the Assay Explorer software (Accelrys).

T2 sequence (O95271 1023-1327): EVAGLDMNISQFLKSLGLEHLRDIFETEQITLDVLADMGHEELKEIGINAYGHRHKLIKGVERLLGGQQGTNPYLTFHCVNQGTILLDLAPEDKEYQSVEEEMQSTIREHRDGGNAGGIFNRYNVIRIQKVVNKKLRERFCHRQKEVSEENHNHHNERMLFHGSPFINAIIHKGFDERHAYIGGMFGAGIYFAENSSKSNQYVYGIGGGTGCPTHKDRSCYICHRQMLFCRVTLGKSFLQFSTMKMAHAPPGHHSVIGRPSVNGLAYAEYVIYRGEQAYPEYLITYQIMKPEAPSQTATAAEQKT
T1 sequence (Q9H2K2 873-1166): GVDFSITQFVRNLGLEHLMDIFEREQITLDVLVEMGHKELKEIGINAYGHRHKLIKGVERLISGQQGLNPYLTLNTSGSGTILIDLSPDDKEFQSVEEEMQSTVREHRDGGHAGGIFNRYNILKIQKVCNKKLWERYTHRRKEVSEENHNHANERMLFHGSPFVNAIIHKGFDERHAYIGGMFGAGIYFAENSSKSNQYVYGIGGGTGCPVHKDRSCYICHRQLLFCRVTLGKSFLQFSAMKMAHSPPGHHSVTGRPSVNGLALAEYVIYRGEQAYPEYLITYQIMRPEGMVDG
T3 sequence (Q9H2K2 873-1166): as above

Compound | IC50 [1] | IC50 [2] | IC50 [3] | EC50 [4]
COc1ccc(N2CCN(c3nc4c(c(=O)[nH]3)CCCC4)CC2)cc1 [Compound A3, 2-[4-(4-methoxy-phenyl)-piperazin-1-yl]-5,6,7,8-tetrahydro-3H-quinazolin-4-one] | 300 to 3000 nM | < 300 nM | < 300 nM | 300 to 3000 nM
O=c1[nH]c(N2CCN(c3ccc(F)cc3)CC2)nc2c1CCCC2 [Compound A6, 2-[4-(4-Fluorophenyl)piperazin-1-yl]-5,6,7,8-tetrahydro-3H-quinazolin-4-one] | 300 to 3000 nM | < 300 nM | < 300 nM | 300 to 3000 nM
COc1cccc(N2CCN(c3nc4c(c(=O)[nH]3)CCCC4)CC2)c1 [Compound A7, 2-[4-(3-Methoxyphenyl)piperazin-1-yl]-5,6,7,8-tetrahydro-3H-quinazolin-4-one] | 300 to 3000 nM | < 300 nM | < 300 nM | 300 to 3000 nM
O=c1[nH]c(N2CCN(c3ccccc3Cl)CC2)nc2c1CCCC2 [Compound A9, 2-[4-(2-Chlorophenyl)piperazin-1-yl]-5,6,7,8-tetrahydro-3H-quinazolin-4-one] | 300 to 3000 nM | < 300 nM | < 300 nM | 300 to 3000 nM
COc1ccccc1N1CCN(c2nc3c(c(=O)[nH]2)CCCC3)CC1 [Compound A12, 2-[4-(2-Methoxyphenyl)piperazin-1-yl]-5,6,7,8-tetrahydro-3H-quinazolin-4-one] | 300 to 3000 nM | < 300 nM | < 300 nM | 300 to 3000 nM
N#Cc1ccccc1N1CCN(c2nc3c(c(=O)[nH]2)CCCC3)CC1 [Compound A33, 2-[4-(4-oxo-5,6,7,8-tetrahydro-3H-quinazolin-2-yl)piperazin-1-yl]benzonitrile] | 300 to 3000 nM | < 300 nM | < 300 nM | 300 to 3000 nM
COc1cc(F)ccc1N1CCN(c2nc3c(c(=O)[nH]2)CCCC3)CC1 [Compound A36, 2-[4-(4-fluoro-2-methoxy-phenyl)piperazin-1-yl]-5,6,7,8-tetrahydro-3H-quinazolin-4-one] | 300 to 3000 nM | < 300 nM | < 300 nM | 300 to 3000 nM
